Consider 21 compounds from patent US8173645B2 (Takeda San Diego, Inc., priority 2007, dated 2012).

This assay addresses T1, glucokinase (GK), residues 12-465 of the human enzyme (Homo sapiens, UniProt P35557).
T1 construct: I.D. No. 1 corresponds to residues 12-465 of glucokinase; made in house; host or cells: E. coli DH10b-Tlr
T1 sequence (P35557 with tags, fused parts or gaps isoform P35557-2): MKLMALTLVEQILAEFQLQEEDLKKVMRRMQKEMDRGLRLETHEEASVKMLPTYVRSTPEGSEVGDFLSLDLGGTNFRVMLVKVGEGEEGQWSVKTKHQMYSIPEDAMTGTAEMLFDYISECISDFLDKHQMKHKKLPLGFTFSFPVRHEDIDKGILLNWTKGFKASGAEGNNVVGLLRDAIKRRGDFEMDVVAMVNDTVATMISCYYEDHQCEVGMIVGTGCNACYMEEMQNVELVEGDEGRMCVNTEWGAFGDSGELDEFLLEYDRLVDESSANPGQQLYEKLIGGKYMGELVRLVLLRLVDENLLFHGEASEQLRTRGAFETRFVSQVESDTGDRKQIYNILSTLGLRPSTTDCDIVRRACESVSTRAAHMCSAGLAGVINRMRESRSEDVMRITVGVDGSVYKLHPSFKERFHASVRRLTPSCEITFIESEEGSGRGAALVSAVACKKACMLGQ
The experiment in a line: Enzymatic glucokinase activity assay (KinaseGlo luminescence, ATP consumption). Conditions: 5 μM ATP, 5 mM Glucose; for EC50: GK activation, Kact = concentration giving 50% of the maximal increase in GK activity, read-out: pKact; for Emax: read-out: % ACTmax. In kind it is biochemical. The text has this: The activity of compounds as glucokinase activators may be assayed in vitro, in vivo or in a cell line. Provided below is an enzymatic glucokinase activity assay.
Purified glucokinase may be obtained as follows. DNA encoding residues 12-465 of the full-length sequence of the human enzyme may be amplified by PCR and cloned into the HindIII and EcoRI sites of pFLAG-CTC (Sigma). SEQ. I.D. No. 1 corresponds to residues 12-465 of glucokinase.
The expression of recombinant glucokinase protein may be carried out by transformation and growth of DH10b-Tlr E. coli cells incorporating the (pFLAG-CTC) plasmid in LB media. Protein expression can be induced in this system by the addition of IPTG to the culture medium.
Recombinant protein may be isolated from cellular extracts by passage over Sepharose Q Fast Flow resin (Pharmacia). This partially purified GK extract may then be further purified by a second passage over Poros HQ 10 (Applied Biosystems). The purity of GK may be determined on denaturing SDS-PAGE gel. Purified GK may then be concentrated to a final concentration of 20.0 mg/ml. After flash freezing in liquid nitrogen, the proteins can be stored at −78° C. in a buffer containing 25 mM TRIS-HCl pH 7.6, 50 mM NaCl, and 0.5 mM TCEP.
The activation properties of compounds for GK may be determined using a black 384-well-plate format under the following reaction conditions: 25 mM Hepes pH 7.2, 25 mM NaCl, 10 mM MgCl2, 0.01% Brij35, 1 mM DTT, 5 μM ATP, 5 mM Glucose 2% DMSO. The amount of ATP consumed may be determined quantitatively by addition of equal volume of luciferase reagent (luciferase+beetle luciferin—KinaseGlo Luminescent Kinase Assay kit from Promega). The luminescence intensity may be measured by using the Analyst HT from LJL Biosystems.
The assay reaction may be initiated as follows: 4 μl of substrate mixture (12.5 μM ATP and 12.5 mM Glucose) was added to each well of the plate, followed by the addition of 2 μl of activator (2 fold serial dilutions for 11 data points for each activator) containing 10% DMSO. 4 μL of 1.25 nM GK solution may be added to initiate the reaction. The reaction mixture may then be incubated at room temperature for 60 min, and quenched and developed by addition of 10 μL of luciferase reagent. Luminescence intensities of the resulting reaction mixtures may be measured after a 10 min incubation at room temperature. The luminescence intensity may be measured by using the Analyst HT from LJL Biosystems.
pKact and % ACTmax values may be calculated by non-linear curve fitting of the compound concentrations and luminescence intensities to a standard inhibition/activation equation.

Where [1] appears, read: calculated maximal gain in GK enzyme activity at a saturating concentration of the compound.

`CS(=O)(=O)N1CCN([C@@H](CC2CCCCC2)C(=O)Nc2nccs2)C(=O)C1` [Example 1, (S)-3-cyclohexyl-2-(4-(methylsulfonyl)-2-oxopiperazin-1-yl)-N-(thiazol-2-yl)propanamide]: the EC50 lay in the range of 1.58 to 2.51 µM. Also, under setting [1], the Emax is 74.1 to 97%.

For the compound `O=C(Nc1nccs1)[C@H](CC1CCCCC1)N1CCN(S(=O)(=O)C2CC2)CC1=O` [Example 2, (S)-3-cyclohexyl-2-(4-(cyclopropylsulfonyl)-2-oxopiperazin-1-yl)-N-(thiazol-2-yl)propanamide], the EC50 is at most 0.631 µM. Moreover, the “% ACTmax” value under setting [1] is 107.5-119.0%.

As to `COc1cccc(C[C@@H](C(=O)Nc2nccs2)N2CCN(S(=O)(=O)C3CC3)CC2=O)c1` [Example 4, (S)-2-(4-(cyclopropylsulfonyl)-2-oxopiperazin-1-yl)-3-(3-methoxyphenyl)-N-(thiazol-2-yl)propanamide], the EC50 lay in the range of 1.58 to 2.51 µM. Moreover, under setting [1], the Emax is 74.1 to 97%.

For the compound `CC(C)C[C@@H](C(=O)Nc1ncc(Cl)s1)N1CCN(S(=O)(=O)C2CC2)CC1=O` [Example 10, (S)—N-(5-chlorothiazol-2-yl)-2-(4-(cyclopropylsulfonyl)-2-oxopiperazin-1-yl)-4-methylpentanamide], the EC50 lay within 0.794 to 1.26 µM. Besides, under setting [1], the Emax is at least 119%.

Take `CC(C)C[C@@H](C(=O)Nc1ncc(F)s1)N1CCN(S(=O)(=O)C2CC2)CC1=O` [Example 11, (S)-2-(4-(cyclopropylsulfonyl)-2-oxopiperazin-1-yl)-N-(5-fluorothiazol-2-yl)-4-methylpentanamide]: the EC50 was in the range of 0.794 to 1.26 µM. For the same compound, under setting [1], the Emax was at least 119%.

For `O=C(Nc1ncc(Cl)s1)C(CC1CCCC1)N1CCN(S(=O)(=O)C2CC2)CC1=O` (stereo not drawn) [Example 16, N-(5-chlorothiazol-2-yl)-3-cyclopentyl-2-(4-(cyclopropylsulfonyl)-2-oxopiperazin-1-yl)propanamide], the EC50 was at most 0.631 µM. Besides, under setting [1], the Emax is at least 119%.

For the compound `CC(=O)N1CCC(CC(C(=O)Nc2nccs2)N2CCN(S(=O)(=O)C3CC3)CC2=O)C1` (stereo not drawn) [Example 20, 3-(1-acetylpyrrolidin-3-yl)-2-(4-(cyclopropylsulfonyl)-2-oxopiperazin-1-yl)-N-(thiazol-2-yl)propanamide], the EC50 lay within 0.794 to 1.26 µM. Also, the Emax under setting [1] is 108 to 119%.

In the case of `O=C(Nc1ncc(F)s1)[C@H](CC1CCOCC1)N1CCN(S(=O)(=O)C2CC2)CC1=O` [Example 21, (S)-2-(4-(cyclopropylsulfonyl)-2-oxopiperazin-1-yl)-N-(5-fluorothiazol-2-yl)-3-(tetrahydro-2H-pyran-4-yl)propanamide], the EC50 was in the range of 1.58 to 2.51 µM. In addition, the Emax under setting [1] is 108 to 119%.

Consider `O=C(Nc1ncc(Cl)s1)C(CC1CCOCC1)N1CCN(S(=O)(=O)C2CC2)CC1=O` (stereo not drawn) [Example 23, N-(5-chlorothiazol-2-yl)-2-(4-(cyclopropylsulfonyl)-2-oxopiperazin-1-yl)-3-(tetrahydro-2H-pyran-4-yl)propanamide], for which the EC50 was in the range of 1.58 to 2.51 µM. For the same compound, the Emax under setting [1] was at least 119%.

For `O=C(Nc1ncc(Cl)s1)[C@H](CC1CCOCC1)N1CCN(S(=O)(=O)C2CC2)CC1=O` [Example 24, (S)-N-(5-chlorothiazol-2-yl)-2-(4-(cyclopropylsulfonyl)-2-oxopiperazin-1-yl)-3-(tetrahydro-2H-pyran-4-yl)propanamide], the EC50 lay within 0.794 to 1.26 µM. In addition, the Emax under setting [1] is at least 119%.

On to `O=C(Nc1ncc(Cl)s1)[C@@H](CC1CCOCC1)N1CCN(S(=O)(=O)C2CC2)CC1=O` [Example 25, (R)-N-(5-chlorothiazol-2-yl)-2-(4-(cyclopropylsulfonyl)-2-oxopiperazin-1-yl)-3-(tetrahydro-2H-pyran-4-yl)propanamide], for which the EC50 was at least 3.16 µM. In addition, under setting [1], the Emax was at most 74%.

On to `COc1ccc2nc(NC(=O)C(CC3CCOCC3)N3CCN(S(=O)(=O)C4CC4)CC3=O)sc2n1` (stereo not drawn) [Example 26, 2-(4-(cyclopropylsulfonyl)-2-oxopiperazin-1-yl)-N-(5-methoxythiazolo[5,4-b]pyridin-2-yl)-3-(tetrahydro-2H-pyran-4-yl)propanamide], for which the EC50 was at least 3.16 µM. Also, the Emax under setting [1] is 74.1 to 97%.

As to `O=C(Nc1ncc(Cl)s1)[C@H](CC1CCOCC1)N1CCN(S(=O)(=O)C2CCCC2)CC1=O` [Example 28, (S)-N-(5-chlorothiazol-2-yl)-2-(4-(cyclopentylsulfonyl)-2-oxopiperazin-1-yl)-3-(tetrahydro-2H-pyran-4-yl)propanamide], the EC50 was at most 0.631 µM. In addition, the Emax under setting [1] is at least 119%.

Take `COc1ccc2nc(NC(=O)C(CC3CCOCC3)N3CCN(S(=O)(=O)C4CCCC4)CC3=O)sc2n1` (stereo not drawn) [Example 29, 2-(4-(cyclopentylsulfonyl)-2-oxopiperazin-1-yl)-N-(5-methoxythiazolo[5,4-b]pyridin-2-yl)-3-(tetrahydro-2H-pyran-4-yl)propanamide]: the EC50 is 0.794 to 1.26 µM. For the same compound, the Emax under setting [1] was 108 to 119%.

`O=C(Nc1nccs1)[C@H](CC1CCCCC1)N1CCN2[C@@H](CCS2(=O)=O)C1=O` [Example 31, (S)-3-Cyclohexyl-N-thiazol-2-yl-2-((S)-1,1,4-trioxo-hexahydro-1λ*6*-thia-5,7a-diaza-inden-5-yl)-propionamide]: the EC50 is at least 3.16 µM. Also, the Emax under setting [1] is 74.1 to 97%.

For the compound `O=C(Nc1ncc(Cl)s1)C(CC1CCOCC1)N1CCN(S(=O)(=O)c2ccc(F)cc2)CC1=O` (stereo not drawn) [Example 33, N-(5-chlorothiazol-2-yl)-2-(4-(4-fluorophenylsulfonyl)-2-oxopiperazin-1-yl)-3-(tetrahydro-2H-pyran-4-yl)propanamide], the EC50 was in the range of 0.794 to 1.26 µM. Further, the Emax under setting [1] is at least 119%.

In the case of `O=C(Nc1ncc(Cl)s1)[C@H](CC1CCOCC1)N1CCN(S(=O)(=O)c2ccc(F)cc2)CC1=O` [Example 34, (S)-N-(5-chlorothiazol-2-yl)-2-(4-(4-fluorophenylsulfonyl)-2-oxopiperazin-1-yl)-3-(tetrahydro-2H-pyran-4-yl)propanamide], the EC50 is 1.58 to 2.51 µM. Further, under setting [1], the Emax is 97.1 to 107%.

Consider `O=C(Nc1ncc(Cl)s1)C(CC1CCOCC1)N1CCN(S(=O)(=O)c2cccs2)CC1=O` (stereo not drawn) [Example 36, N-(5-chlorothiazol-2-yl)-2-(2-oxo-4-(thiophen-2-ylsulfonyl)piperazin-1-yl)-3-(tetrahydro-2H-pyran-4-yl)propanamide], for which the EC50 is at most 0.631 µM. In addition, under setting [1], the Emax is 108 to 119%.

On to `O=C(Nc1ncc(Cl)s1)[C@H](CC1CCOCC1)N1CCN(S(=O)(=O)c2cccs2)CC1=O` [Example 37, (S)-N-(5-chlorothiazol-2-yl)-2-(2-oxo-4-(thiophen-2-ylsulfonyl)piperazin-1-yl)-3-(tetrahydro-2H-pyran-4-yl)propanamide], for which the EC50 was at most 0.631 µM. Besides, the Emax under setting [1] is 74.1 to 97%.

In the case of `O=C(Nc1nccs1)[C@H](CC1CCCCC1)N1CCN(S(=O)(=O)c2ccc3ccccc3c2)CC1=O` [Example 39, (S)-3-cyclohexyl-2-(4-(naphthalen-2-ylsulfonyl)-2-oxopiperazin-1-yl)-N-(thiazol-2-yl)propanamide], the EC50 lay in the range of 0.794 to 1.26 µM. For the same compound, the Emax under setting [1] is at most 74%.

Consider `O=C(Nc1nccs1)[C@H](CC1CCCCC1)N1CCN(S(=O)(=O)c2cccc3cccnc23)CC1=O` [Example 40, (S)-3-cyclohexyl-2-(2-oxo-4-(quinolin-8-ylsulfonyl)piperazin-1-yl)-N-(thiazol-2-yl)propanamide], for which the EC50 was 0.794 to 1.26 µM. Besides, the Emax under setting [1] was 108 to 119%.
